Data as given in EP3002286B1, “PREPARATION METHOD FOR POLYMORPHIC 6-(4-CHLOROPHENOXY)-TETRAZOLO[5,1-A]PHTHALAZINE AND USE THEREOF” (Jilin Yinglian Shangde Science and Technology Development …, priority 2014, dated 2015).

Key:
[1] = test system: maximal electroshock seizure; experiment: Maximal electroshock (MES) test; format: in vivo; details: mice; for ED50: Mus musculus, po; for ED50 / ED50, MES: p.o (intragastrically, i.g.), effect against electroshock seizure
Protocol: Maximal electroshock (MES) test is an ideal animal model for evaluating a compound having a potential anti-epileptic effect, and if the compound can be applied against the maximal electroshock seizure, then it is likely to be further developed as a drug for treatment of grand mal clinically. Each of the four crystalline forms of this invention was intragastrically (i.g.) administered to mice respectively, each median effective dose (ED50) for the effect against electroshock seizure was measured, and each anti-convulsion effect was assessed. Table 3 Comparison of the pharmacological effect of the anti-convulsion of the crystalline forms (mg/kg, p.o)

[2] = Comparison of solubility of the crystalline forms in water (UV absorbance of saturated solution); format: physicochemical; details: for Absorbance (Abs): saturated water solution (10mg in 1ml of water, stirred 1 hour, filtered), diluted 10 times, ultraviolet spectrophotometer; for Solubility relationship with respect to Form A: water, concentration ratio from absorbance according to the Lambert-Beer law
Protocol: 10mg of 6-(4-chlorophenoxy)-tetrazolo[5,1-a]phthalazine in each of the four crystalline forms was dissolved into 1ml of water, respectively, and the mixture was stirred for 1 hour so as to reach a solubility equilibrium with a supersaturated state being kept, and then the resultant mixture was filtered to give a clear and saturated water solution for each of the crystalline forms, respectively. Then, each solution was diluted 10 times, and absorbance thereof was measured using a ultraviolet spectrophotometer, and then the concentration ratio of 6-(4-chlorophenoxy)-tetrazolo[5,1-a]phthalazine in each solution could be determined according to the Lambert-Beer law, so as to obtain the solubility relationship among the four crystalline forms (see Table 2 for results). Table 2 Comparison of solubility of the crystalline forms

[3] = Stability of the crystalline forms (suspension balance), product form decided by XRPD; format: physicochemical; details: suspension time 2 days
Protocol: 20mg of crystalline form A and 20mg of crystalline form B were mixed, then placed into 1ml of methanol as a solvent, followed by mixing the resultant suspension with a magnetic stirrer at a rotational speed of 100 rpm for two days. And then, the suspension was filtered, and the product obtained was washed with a small amount of methanol, followed by drying at room temperature to give a solid, which was analyzed with XRPD to decide the crystalline form of the product. Other sample mixtures were also shown in Table 1 (see Table 1 for results). Table 1 Comparison of the stability of the crystalline forms (suspension balance)

## NC(=O)N1c2ccccc2C=Cc2ccccc21 [Carbamazepine, reference compound]
[1]
  ED50: 15.4 mg/kg

## Clc1ccc(Oc2nn3nnnc3c3ccccc23)cc1 [Crystalline form A, 6-(4-chlorophenoxy)-tetrazolo[5,1-a]phthalazine]
[1]
  ED50: 15.6 mg/kg
[2]
  Absorbance (Abs): 0.0407 Abs

## Clc1ccc(Oc2nn3nnnc3c3ccccc23)cc1 [Crystalline form B, 6-(4-chlorophenoxy)-tetrazolo[5,1-a]phthalazine]
[1]
  ED50, MES: 9.2 mg/kg
[2]
  Absorbance (Abs): 0.279 Abs
  Solubility relationship with respect to Form A: 6.8 times

## Clc1ccc(Oc2nn3nnnc3c3ccccc23)cc1 [Crystalline form C, 6-(4-chlorophenoxy)-tetrazolo[5,1-a]phthalazine]
[1]; comparison among the crystalline forms, intragastrically administered
  anti-convulsion effect (in words): strongest anti-convulsion effect
[1]
  ED50, MES: 8.5 mg/kg
[2]; comparison among the crystalline forms
  water solubility (in words): best water solubility
[2]
  Absorbance (Abs): 0.326 Abs
  Solubility relationship with respect to Form A: 8.0 times

## Clc1ccc(Oc2nn3nnnc3c3ccccc23)cc1 [Crystalline form D, 6-(4-chlorophenoxy)-tetrazolo[5,1-a]phthalazine]
[1]
  ED50, MES: 12.7 mg/kg
[2]
  Absorbance (Abs): 0.134 Abs
  Solubility relationship with respect to Form A: 3.3 times

## Clc1ccc(Oc2nn3nnnc3c3ccccc23)cc1 [Form A + Form B, 6-(4-chlorophenoxy)-tetrazolo[5,1-a]phthalazine]
[3]; solvent for suspension Methanol
  Crystalline form of the product: Form A

## Clc1ccc(Oc2nn3nnnc3c3ccccc23)cc1 [Form A + Form C, 6-(4-chlorophenoxy)-tetrazolo[5,1-a]phthalazine]
[3]; solvent for suspension Methyl ethyl ketone
  Crystalline form of the product: Form A

## Clc1ccc(Oc2nn3nnnc3c3ccccc23)cc1 [Form A + Form D, 6-(4-chlorophenoxy)-tetrazolo[5,1-a]phthalazine]
[3]; solvent for suspension Nitromethane + n-hexane
  Crystalline form of the product: Form A
